Converted amounts (≈) assume the structure as drawn.
Each compound was assayed on Candida albicans ATCC MYA-2876 (assay: Minimal inhibitory concentration (MIC) test on fungal growth (CLSI M27, yeasts)). Conditions: Candida albicans, 24 h, read-out: MIC Candida albicans ATCC MYA-2876.
Type: cell-based
Method: • RPMI1640 medium: Brand: Gibco, article number: 31800-014 • Sabouraud dextrose agar (SDA): Brand: Hope Bio, article number: HB0253-81 • Voriconazole: Brand: Adamas, article number: 22105A • Amphotericin B: Brand: AbCam, article number: ab141199
MIC test was conducted in accordance with the guidelines and requirements of CLSI M27 (for yeasts) and M38 (for Aspergillus).
Strain preparation: The strains were inoculated 1 day in advance by streaking on SDA plates with glycerol strains stored at −80° C. The strains were cultured at 35° C. and 40 to 60% humidity for 18 to 24 hours. Streak inoculation of Aspergillus fumigatus and Cryptococcus neoformans was required to be done 3 days and 2 days in advance, respectively.
Preparation of culture medium and compounds: The liquid culture medium RPMI was prepared with pure water, and 0.165 mol/L MOPS was added to adjust the pH to 7.0. The mixture was filtered with a 0.22 μm-membrane filter, sterilized, and stored at 4° C. (no more than 3 months). 0.85% physiological saline was sterilized at 121° C. for 30 min and then stored at room temperature (no more than 1 week). The compounds were dissolved in DMSO to 12.8 mg/mL and stored at −20° C.
For yeast, 3 to 5 colonies were selected from the SDA plate on the day of testing and fully suspended in 5 mL of sterilized 0.85% physiological saline. The turbidity of the bacterial suspension was measured with a turbidimeter, and the turbidity was adjusted to approximately 0.2. The bacterial suspension was 50-fold and 20-fold (1000-fold in total) diluted in RPMI1640 medium, respectively, to serve as the inoculum. The final inoculum concentration was 500 to 2500 CFU/mL.
The compound was diluted to the highest 800 μg/mL (or 400 μg/mL) with DMSO, and a 10-step 2-fold gradient dilution was performed, resulting in 11 concentrations. 2 μL of the gradient-diluted compound was transferred to the corresponding wells of a 96-well plate, and then 198 μL of the inoculum was transferred to the test plate. The plate was incubated at 35° C. for 24 hours (Aspergillus fumigatus and Cryptococcus neoformans were incubated for 48 and 72 hours, respectively).
After the incubation, the growth of the fungi was visually observed. The lowest concentration of the compound that inhibited the growth of yeast by 50% (inhibited Aspergillus by 100%) was defined as the minimum inhibitory concentration (MIC, μg/mL). A magnifying glass or reading at OD530 nm could be used to assist in determining the MIC. Photos were taken of the test plates for record keeping.

SMILES	MIC
CC(C)NC[C@@H](O)COc1ccc(C23CC(C(F)(F)C(O)(Cn4cnnn4)c4ccc(F)cc4F)(C2)C3)cc1 (stereo partly shown) [Compound 54]	0.5 µg/mL (≈ 0.91 µM)
OCC(F)(F)CNc1ccc(C23CC(C(F)(F)C(O)(Cn4cnnn4)c4ccc(F)cc4F)(C2)C3)cn1 (stereo not shown) [Compound 104]	0.03 µg/mL (≈ 0.0568 µM)
OC(COc1ccc(C23CC(C(F)(F)C(O)(Cn4cnnn4)c4ccc(F)cc4F)(C2)C3)cc1)CN1CCOCC1 (stereo not shown) [Compound 57]	0.06 µg/mL (≈ 0.104 µM)
OC(Cn1cnnn1)(c1ccc(F)cc1F)C(F)(F)C12CC(c3ccc(OCC(F)(F)F)nn3)(C1)C2 (stereo not shown) [Compound 114]	0.06 µg/mL (≈ 0.116 µM)
CN(C)CCOc1ccc(C23CC(C(F)(F)C(O)(Cn4cnnn4)c4ccc(F)cc4F)(C2)C3)cc1 (stereo not shown) [Compound 64]	0.06 µg/mL (≈ 0.119 µM)
OC(Cn1cnnn1)(c1ccc(F)cc1F)C(F)(F)C12CC(c3ccc(OCC(F)(F)F)cn3)(C1)C2 (stereo not shown) [Compound 105]	0.016 µg/mL (≈ 0.0309 µM)

Same assay, conditions: Candida albicans; lowest concentration inhibiting growth of yeast by 50%; 35° C., 24 hours; RPMI1640; read-out: MIC Candida albicans ATCC MYA-2876

SMILES	MIC
O[C@H](COc1ccc(C23CC(CC(O)(Cn4cnnn4)c4ccc(F)cc4F)(C2)C3)cc1)C(F)(F)F (stereo partly shown) [Compound 89]	0.016 µg/mL (≈ 0.0313 µM)
CNC(=O)COc1ccc(C23CC(C(F)(F)C(O)(Cn4cnnn4)c4ccc(F)cc4F)(C2)C3)cc1 (stereo not shown) [Compound 34]	0.016 µg/mL (≈ 0.0317 µM)
OC(COCc1ccc(C23CC(C(F)(F)C(O)(Cn4cnnn4)c4ccc(F)cc4F)(C2)C3)cn1)C(F)(F)F (stereo not shown) [Compound 86]	0.06 µg/mL (≈ 0.107 µM)
OC1CC(Oc2ccc(C34CC(C(F)(F)C(O)(Cn5cnnn5)c5ccc(F)cc5F)(C3)C4)cc2)C1 (stereo not shown) [Compound 39]	0.0078 µg/mL (≈ 0.0155 µM)
N#Cc1ccc(C23CC(C(F)(F)[C@](O)(Cn4cnnn4)c4cc(F)ccc4F)(C2)C3)cc1 [Compound 28A]	0.25 µg/mL (≈ 0.564 µM)
O[C@@H](CNc1ccc(C23CC(C(F)(F)[C@](O)(Cn4cnnn4)c4ccc(F)cc4F)(C2)C3)cn1)C(F)(F)F (relative stereo) [Compound 99B]	0.03 µg/mL (≈ 0.0549 µM)
OC(Cn1cnnn1)(c1ccc(F)cc1F)C(F)(F)C12CC(c3ccc(C(F)(F)F)nc3)(C1)C2 (stereo not shown) [Compound 115]	0.125 µg/mL (≈ 0.256 µM)
CCS(=O)(=O)C[C@@H](O)COc1ccc(C23CC(C(F)(F)C(O)(Cn4cnnn4)c4ccc(F)cc4F)(C2)C3)cc1 (stereo partly shown) [Compound 139]	0.06 µg/mL (≈ 0.103 µM)
OC(Cn1cnnn1)(c1ccc(F)cc1F)C(F)(F)C12CC(c3ccc(COCC(F)(F)F)cc3)(C1)C2 (stereo not shown) [Compound 160]	0.016 µg/mL (≈ 0.0302 µM)
OC(Cn1cnnn1)(c1ccc(F)cc1F)C(F)(F)C12CC(c3ccc(OC(F)F)cc3)(C1)C2 (stereo not shown) [Compound 26]	0.016 µg/mL (≈ 0.033 µM)
CN(C)C[C@H](O)COc1ccc(C23CC(C(F)(F)C(O)(Cn4cnnn4)c4ccc(F)cc4F)(C2)C3)cc1 (stereo partly shown) [Compound 56]	0.5 µg/mL (≈ 0.934 µM)
O[C@H](COc1ccc(C23CC(C(F)(F)[C@](O)(Cn4cnnn4)c4cc(F)ccc4F)(C2)C3)cc1)C(F)(F)F (relative stereo) [Compound 165A]	0.016 µg/mL (≈ 0.0293 µM)
N#Cc1ccc(C23CC(C(F)(F)[C@@](Cn4cncn4)(OCOP(=O)(O)O)c4ccc(F)cc4F)(C2)C3)cc1 [Compound 27A-P2]	0.5 µg/mL (≈ 0.905 µM)
OC(Cn1cnnn1)(c1ccc(F)cc1F)C(F)(F)C12CC(c3ccc4c(c3)OCO4)(C1)C2 (stereo not shown) [Compound 33]	0.06 µg/mL (≈ 0.13 µM)
OC(COc1cnc(C23CC(C(F)(F)C(O)(Cn4cnnn4)c4ccc(F)cc4F)(C2)C3)cn1)C(F)(F)F (stereo not shown) [Compound 108]	0.06 µg/mL (≈ 0.109 µM)
O=S1(=O)CCC(c2ccc(C34CC(C(F)(F)C(O)(Cn5cnnn5)c5ccc(F)cc5F)(C3)C4)cc2)CC1 (stereo not shown) [Compound 163]	0.0078 µg/mL (≈ 0.0142 µM)
OC(CNc1ccc(C23CC(C(F)(F)C(O)(Cn4cncn4)c4ccc(F)cc4F)(C2)C3)cn1)C(F)(F)F (stereo not shown) [Compound 100]	0.0078 µg/mL (≈ 0.0143 µM)
CCOc1ccc(C23CC(C(F)(F)C(O)(Cn4cnnn4)c4ccc(F)cc4F)(C2)C3)cc1 (stereo not shown) [Compound 87]	0.016 µg/mL (≈ 0.0346 µM)
OC(COc1ccc(C23CC(C(F)(F)C(O)(Cn4cnnn4)c4ccc(F)cc4F)(C2)C3)cn1)C(F)(F)F (stereo not shown) [Compound 97]	0.0078 µg/mL (≈ 0.0142 µM)
O[C@H](CNc1ccc(C23CC(C(F)(F)[C@](O)(Cn4cnnn4)c4ccc(F)cc4F)(C2)C3)cn1)C(F)(F)F (relative stereo) [Compound 99A]	0.016 µg/mL (≈ 0.0293 µM)
C[C@@](F)(C12CC(c3ccc(OCC(F)(F)F)cc3)(C1)C2)[C@](O)(Cn1cnnn1)c1ccc(F)cc1F (single isomer, unassigned) [Compound 18A]	0.0078 µg/mL (≈ 0.0152 µM)
OC(Cn1cnnn1)(c1ccc(F)cc1F)C(F)(F)C12CC(c3ccc(Cl)cc3)(C1)C2 (stereo not shown) [Compound 32]	0.016 µg/mL (≈ 0.0353 µM)

SMILES	MIC
CN1CCC(O)(COc2ccc(C34CC(C(F)(F)C(O)(Cn5cnnn5)c5ccc(F)cc5F)(C3)C4)cc2)CC1 (stereo not shown) [Compound 38]	0.5 µg/mL (≈ 0.89 µM)
O[C@@](Cn1cnnn1)(c1ccc(F)cc1F)C(F)(F)C12CC(c3cnc(OCC(F)(F)F)cn3)(C1)C2 (stereo in doubt) [Compound 107A]	0.016 µg/mL (≈ 0.0309 µM)
O=C1NC[C@@H](COc2ccc(C34CC(C(F)(F)C(O)(Cn5cnnn5)c5ccc(F)cc5F)(C3)C4)cc2)O1 (stereo partly shown) [Compound 60]	0.06 µg/mL (≈ 0.112 µM)
OC(CNc1ccc(C23CC(C(F)(F)C(O)(Cn4cnnn4)c4ccc(F)cc4F)(C2)C3)cn1)C(F)(F)F (stereo not shown) [Compound 99]	0.016 µg/mL (≈ 0.0293 µM)
OC(Cn1cnnn1)(c1ccc(F)cc1F)C(F)(F)C12CC(I)(C1)C2 (stereo not shown) [Compound 11]	0.03 µg/mL (≈ 0.0641 µM)
CC12CC(C(F)(F)C(O)(Cn3cnnn3)c3ccc(F)cc3F)(C1)C2 (stereo not shown) [Compound 14]	0.03 µg/mL (≈ 0.0842 µM)
COCCOc1ccc(C23CC(C(F)(F)C(O)(Cn4cnnn4)c4ccc(F)cc4F)(C2)C3)cc1 (stereo not shown) [Compound 62]	0.016 µg/mL (≈ 0.0325 µM)
N#Cc1ccc(C23CC(C(F)(F)C(O)(Cn4cnnn4)c4ccc(F)cc4F)(C2)C3)cc1 (stereo not shown) [Compound 8]	0.5 µg/mL (≈ 1.13 µM)
O[C@](Cn1cncn1)(c1ccc(F)cc1F)C(F)(F)C12CC(C1)C2 (single isomer, unassigned) [Compound 10B]	1 µg/mL (≈ 2.93 µM)
OC(Cn1cnnn1)(c1ccc(F)cc1F)C(F)(F)C12CC(c3ccc(CNCC(F)(F)F)cc3)(C1)C2 (stereo not shown) [Compound 161]	0.016 µg/mL (≈ 0.0302 µM)
OC(Cn1cnnn1)(c1ccc(F)cc1F)C(F)(F)C12CC(c3ccc(OCc4nccs4)cc3)(C1)C2 (stereo not shown) [Compound 73]	0.016 µg/mL (≈ 0.0301 µM)
CN1CC[C@H](Oc2ccc(C34CC(C(F)(F)C(O)(Cn5cnnn5)c5ccc(F)cc5F)(C3)C4)cc2)C1 (stereo partly shown) [Compound 43]	0.03 µg/mL (≈ 0.058 µM)
Oc1ccc(C23CC(C(F)(F)[C@@](O)(Cn4cncn4)c4ccc(F)cc4F)(C2)C3)cc1 [Compound 21B]	1 µg/mL (≈ 2.31 µM)
CNC(=O)c1ccc(C23CC(C(F)(F)C(O)(Cn4cnnn4)c4ccc(F)cc4F)(C2)C3)cc1 (stereo not shown) [Compound 79]	0.25 µg/mL (≈ 0.526 µM)
CN1CC(COc2ccc(C34CC(C(F)(F)C(O)(Cn5cnnn5)c5ccc(F)cc5F)(C3)C4)cc2)C1 (stereo not shown) [Compound 75]	0.13 µg/mL (≈ 0.251 µM)
OC1(COc2ccc(C34CC(C(F)(F)C(O)(Cn5cnnn5)c5ccc(F)cc5F)(C3)C4)cc2)COC1 (stereo not shown) [Compound 150]	0.03 µg/mL (≈ 0.0576 µM)
OC(Cn1cncn1)(c1ccc(F)cc1F)C(F)(F)C12CC(c3ccc(-n4cncn4)nc3)(C1)C2 (stereo not shown) [Compound 95]	≤ 0.0039 µg/mL
CN1CC[C@@H](Oc2ccc(C34CC(C(F)(F)C(O)(Cn5cnnn5)c5ccc(F)cc5F)(C3)C4)cc2)C1 (stereo partly shown) [Compound 42]	0.06 µg/mL (≈ 0.116 µM)
N#Cc1cccc(C23CC(C(F)(F)C(O)(Cn4cnnn4)c4ccc(F)cc4F)(C2)C3)c1 (stereo not shown) [Compound 30]	0.06 µg/mL (≈ 0.135 µM)
OC(Cn1cnnn1)(c1ccc(Cl)cc1F)C(F)(F)C12CC(c3ccc(OCC(F)(F)F)cc3)(C1)C2 (stereo not shown) [Compound 7]	0.016 µg/mL (≈ 0.03 µM)
CNC(=O)COc1ccc(C23CC(C(F)(F)[C@@](O)(Cn4cncn4)c4ccc(F)cc4F)(C2)C3)cc1 (single isomer, unassigned) [Compound 35B]	0.125 µg/mL (≈ 0.248 µM)
N#Cc1ccc(C23CC(CC(O)(Cn4cncn4)c4ccc(F)cc4F)(C2)C3)cc1 (stereo not shown) [Compound 91]	≤ 0.0039 µg/mL

Same assay, conditions: lowest concentration inhibiting growth of yeast by 50%; 35° C., 24 hours; RPMI1640

SMILES	MIC Candida albicans ATCC MYA-2876
OC(Cn1cnnn1)(c1ccc(F)cc1F)C(F)(F)C12CC(C3=CCN(CC(F)(F)F)CC3)(C1)C2 (stereo not shown) [Compound 118]	0.0078 µg/mL (≈ 0.0154 µM)
O[C@@](Cn1cnnn1)(c1ccc(F)cc1F)C(F)(F)C12CC(c3ccc(Cl)cc3)(C1)C2 [Compound 32A]	≤0.0039 µg/mL
O[C@](Cn1cnnn1)(CC12CC(c3ccc(OCC(F)(F)F)cc3)(C1)C2)c1ccc(F)cc1F [Compound 48A]	0.016 µg/mL (≈ 0.0333 µM)
OC(Cn1cnnn1)(c1ccc(F)cc1F)C(F)(F)C12CC(c3cnn(CC(F)(F)F)c3)(C1)C2 (stereo not shown) [Compound 120]	0.125 µg/mL (≈ 0.255 µM)
O[C@](Cn1cnnn1)(c1cc(F)ccc1F)C(F)(F)C12CC(c3ccc(OCC(F)(F)F)cc3)(C1)C2 [Compound 9A]	0.06 µg/mL (≈ 0.116 µM)

Reference: patent US20240228446A1, “PREPARATION METHOD FOR BICYCLIC COMPOUND AND APPLICATION AS ANTIFUNGAL AGENT” (priority 2021, published 2024)
